Test results from patent US5516806A, “Ornithine decarboxylase inhibiting cyclic aminooxy compounds” (Ciba-Geigy Corporation, priority 1993, dated 1996).
Where a name gives a salt, the structure may show the parent alone.

What was measured:
[1] = system: human T24 bladder carcinoma cells; test: Inhibition of proliferation of T24 bladder carcinoma cells (methylene blue staining, 5 days); assay type: cell-based; details: T-24, 120 h, 5 days incubation, read-out: Inhibition of T24 cell growth IC50
Procedure: The carcinoma cells (1000-1500) are transinoculated into 96-depression microlitre plates and incubated overnight under the conditions mentioned. The test substance is added in serial dilutions on day 1. The plates are incubated under the conditions mentioned for 5 days. During this period of time, the control cultures pass through at least 4 cell divisions. After the incubation, the cells are fixed with 3.3% (weight/volume=w/v) aqueous glutaraldehyde solution, washed with water and dyed with 0.05% (w/v) aqueous methylene blue solution. After washing, the dye is eluted with 3% (w/v) aqueous hydrochloric acid. Thereafter, the optical density (OD) per depression, which is directly proportional to the number of cells, is measured with a photometer (Titertek multiskan) at 665 nm. The IC50 values are calculated with a computer system using the formula [formula]
The IC50 values are defined as that concentration of active ingredient at which the number of cells per depression at the end of the incubation time is only 50% of the number of cells in the control cultures.
(§1) On measurement of the IC50 for inhibition of ornithine decarboxylase (by the abovementioned method of Seely and Pegg with ODC from rat liver (obtained by the method of Hayashi and Kameji, see above)) and of the IC50 for inhibition of proliferation of T24 bladder carcinoma cells as described above, the following IC50 values can be found with the particular compounds mentioned from the examples: […]

[2] = target: T1, ornithine decarboxylase (ODC) (Rattus norvegicus, UniProt P09057); test: Inhibition of ornithine decarboxylase (method of Seely and Pegg, ODC from rat liver); assay type: biochemical
T1 construct: from tissue; host or cells: rat liver
T1 sequence (P09057 1-461): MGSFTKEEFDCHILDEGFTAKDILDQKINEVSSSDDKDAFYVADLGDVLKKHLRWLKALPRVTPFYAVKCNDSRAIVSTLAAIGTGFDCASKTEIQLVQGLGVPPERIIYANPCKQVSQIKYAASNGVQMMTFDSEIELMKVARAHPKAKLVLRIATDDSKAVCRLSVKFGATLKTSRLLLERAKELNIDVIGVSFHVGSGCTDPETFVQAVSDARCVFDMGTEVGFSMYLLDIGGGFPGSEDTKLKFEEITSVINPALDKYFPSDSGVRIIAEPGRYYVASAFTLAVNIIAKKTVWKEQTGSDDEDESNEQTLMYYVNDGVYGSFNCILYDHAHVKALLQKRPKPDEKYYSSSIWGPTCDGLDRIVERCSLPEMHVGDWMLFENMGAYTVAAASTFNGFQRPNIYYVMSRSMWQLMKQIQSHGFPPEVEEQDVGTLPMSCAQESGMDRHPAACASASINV
Procedure: White-Tabor (editors): Methods in Enzymology, Volume 94: Polyamines, Academic Press, New York 1983. If ODC from rat liver is used in this test (isolation: Hayashi, S.-I. and Kameji, T., same volume, pages 154-158), IC50 values in the micromolar region, down to about 0.01 μM, preferably between about 0.01 and 10 μM, for example between about 0.02 and about 7.2 μM, are obtained for the compounds of the formula I.IC50 is the concentration of the inhibitor at which the ODC activity is 50% of that of a control without the inhibitor.
as §1

SMILES	IC50 [1] [nM]	IC50 [2] [nM]
NO[C@H]1CCC[C@H](N)C1 (relative stereo) [Example 3, trans-3-Aminooxy-cyclohexylamine dihydrochloride]	11000	–
NC[C@@H]1C[C@@H]1CON (relative stereo) [Example 10, cis-2-Aminooxymethyl-cyclopropylmethylamine dihydrochloride]	–	470
NO[C@H]1CC[C@H](N)CC1 [Example 1, trans-4-Aminooxy-cyclohexylamine dihydrochloride]	7500	220
NOC[C@H]1C[C@@H](N)C1 [Example 6, cis-3-Aminooxymethyl-cyclobutylamine dihydrochlofide]	–	83
NOC[C@H]1C[C@H](N)C1 [Example 7, trans-3-Aminooxymethyl-cyclobutylamine dihydrochloride]	4900	23
NOCC1CC(N)C1 (stereo not shown) [Example 8, 3-Aminooxymethyl-cyclobutylamine dihydrochloride]	4150	20
NCC1CC(ON)C1 (stereo not shown) [Example 9, 3-Aminooxy-cyclobutylmethylamine dihydrochlofide]	–	53
